Source: US12655116B2, “Substituted isophthalic acid diamides” (Bayer Aktiengesellschaft, priority 2020, dated 2026)

Key:
AMARE [1] = experiment: Pre-emergence herbicidal action against AMARE; type: in vivo, Amaranthus retroflexus
Method in brief: (§1)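 Greenhouse pots of sandy loam held seeds covered with soil, onto which the compound was applied before emergence. An aqueous suspension or emulsion of WP or EC was used at 600 to 800 l/ha with 0.2% wetting agent. Percent damage was judged visually at 3 weeks.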

PHBPU [2] = experiment: Post-emergence herbicidal action against PHBPU; type: in vivo, Pharbitis purpurea
Method in brief: (§2)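 Foliar application at one-leaf stage of formulated test compounds, aqueous spray at 600–800 l/ha with 0.2% wetting agent. Greenhouse, optimal conditions, ~3 weeks; damage scored visually in % relative to untreated plants.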

AMARE [3] = experiment: Post-emergence herbicidal action against AMARE; type: in vivo, Amaranthus retroflexus; details: 20 g/ha, visual assessment about 3 weeks after treatment, 100% = plants have died, 0% = like control plants
Method in brief: as §2

ALOMY [4] = experiment: Pre-emergence herbicidal action against ALOMY; type: in vivo, Alopecurus myosuroides; details: 80 g/ha, pre-emergence, scored visually after 3 weeks vs untreated controls (100% = plants have died, 0% = like control plants)
Method in brief: as §1

DIGSA [5] = experiment: Post-emergence herbicidal action against DIGSA; type: in vivo, Digitaria sanguinalis
Method in brief: as §2

SETVI [6] = experiment: Post-emergence herbicidal action against SETVI; type: in vivo, Setaria viridis
Method in brief: as §2

VERPE [7] = experiment: Pre-emergence herbicidal action against VERPE; type: in vivo, Veronica persica; details: dosage 80 g/ha
Method in brief: as §1

POLCO = experiment: Pre-emergence herbicidal action against POLCO; type: in vivo, Polygonum convolvulus
Method in brief: as §1

PHBPU [8] = experiment: Pre-emergence herbicidal action against PHBPU; type: in vivo, Pharbitis purpurea; details: dosage 80 g/ha
Method in brief: as §1

AVEFA = experiment: Pre-emergence herbicidal action against AVEFA; type: in vivo, Avena fatua; details: 80 g/ha, pre-emergence
Method in brief: as §1

MATIN [9] = experiment: Pre-emergence herbicidal action against MATIN; type: in vivo, Matricaria inodora
Method in brief: as §1

ECHCG [10] = experiment: Post-emergence herbicidal action against ECHCG; type: in vivo, Echinochloa crus-galli
Method in brief: as §2

ECHCG [11] = experiment: Pre-emergence herbicidal action against ECHCG; type: in vivo, Echinochloa crus-galli; details: 80 g/ha
Method in brief: as §1

SETVI [12] = experiment: Pre-emergence herbicidal action against SETVI; type: in vivo, Setaria viridis; details: dosage 80 g/ha
Method in brief: as §1

ALOMY [13] = experiment: Post-emergence herbicidal action against ALOMY; type: in vivo, Alopecurus myosuroides; details: dosage 20 g/ha, visual assessment about 3 weeks after treatment vs untreated controls
Method in brief: as §2

MATIN [14] = experiment: Post-emergence herbicidal action against MATIN; type: in vivo, Matricaria inodora
Method in brief: as §2

DIGSA [15] = experiment: Pre-emergence herbicidal action against DIGSA; type: in vivo, Digitaria sanguinalis
Method in brief: as §1

ABUTH [16] = experiment: Pre-emergence herbicidal action against ABUTH; type: in vivo, Abutilon theophrasti
Method in brief: as §1

VIOTR = experiment: Pre-emergence herbicidal action against VIOTR; type: in vivo, Viola tricolor
Method in brief: as §1

ABUTH [17] = experiment: Post-emergence herbicidal action against ABUTH; type: in vivo, Abutilon theophrasti; details: visual assessment about 3 weeks after treatment vs untreated controls
Method in brief: as §2

VERPE [18] = experiment: Post-emergence herbicidal action against VERPE; type: in vivo, Veronica persica; details: 20 g/ha
Method in brief: as §2

[19] = Tripleurospermum inodorum, 504 h, dosage 20 g/ha
[20] = 20 g/ha, scored visually after 3 weeks vs untreated controls, 100% = plants have died, 0% = like control plants
[21] = 80 g/ha, scored visually after 3 weeks vs untreated controls (100% = plants have died, 0% = like control plants)

Structure (SMILES): Cn1nnnc1NC(=O)c1ccc(C(F)F)c(C(=O)NCC(F)(F)F)c1Br [Example 1-229]
- pest or weed control at 20 g/ha (AMARE [1]; Amaranthus retroflexus, 504 h, 20 g/ha, scored visually after 3 weeks vs untreated controls, 100% = plants have died, 0% = like control plants): 100%
- pest or weed control at 80 g/ha (AMARE [1]; Amaranthus retroflexus, 504 h, 80 g/ha, scored visually after 3 weeks vs untreated controls, 100% = plants have died, 0% = like control plants): 100%
- pest or weed control at 20 g/ha (PHBPU [2]; Ipomoea purpurea, 504 h, dosage 20 g/ha): 80%
- pest or weed control at 20 g/ha (AMARE [3]; Amaranthus retroflexus, 504 h): 90%
- pest or weed control at 80 g/ha (ALOMY [4]; Alopecurus myosuroides, 504 h): 90%
- pest or weed control at 5 g/ha (DIGSA [5]; Digitaria sanguinalis, 504 h, 5 g/ha): 90%
- pest or weed control at 20 g/ha (DIGSA [5]; Digitaria sanguinalis, 504 h, 20 g/ha): 90%
- pest or weed control at 5 g/ha (SETVI [6]; Setaria viridis, 504 h, dosage 5 g/ha): 80%
- pest or weed control at 20 g/ha (SETVI [6]; Setaria viridis, 504 h, dosage 20 g/ha): 90%
- pest or weed control at 80 g/ha (VERPE [7]; Veronica persica, 504 h): 100%
- pest or weed control at 80 g/ha (POLCO; Fallopia convolvulus, 504 h, dosage 80 g/ha): 80%
- pest or weed control at 80 g/ha (PHBPU [8]; Ipomoea purpurea, 504 h): 90%
- pest or weed control at 80 g/ha (AVEFA; Avena fatua, 504 h): 80%
- pest or weed control at 20 g/ha (MATIN [9]; [19]): 100%
- pest or weed control at 80 g/ha (MATIN [9]; Tripleurospermum inodorum, 504 h, dosage 80 g/ha): 100%
- pest or weed control at 5 g/ha (ECHCG [10]; Echinochloa crus-galli, 504 h, dosage 5 g/ha): 90%
- pest or weed control at 20 g/ha (ECHCG [10]; Echinochloa crus-galli, 504 h, dosage 20 g/ha): 90%
- pest or weed control at 80 g/ha (ECHCG [11]; Echinochloa crus-galli, 504 h): 80%
- pest or weed control at 80 g/ha (SETVI [12]; Setaria viridis, 504 h): 100%
- pest or weed control at 20 g/ha (ALOMY [13]; Alopecurus myosuroides, 504 h): 80%
- pest or weed control at 20 g/ha (MATIN [14]; [19]): 80%
- pest or weed control at 20 g/ha (DIGSA [15]; Digitaria sanguinalis, 504 h, dosage 20 g/ha): 100%
- pest or weed control at 80 g/ha (DIGSA [15]; Digitaria sanguinalis, 504 h, dosage 80 g/ha): 100%
- pest or weed control at 80 g/ha (ABUTH [16]; Abutilon theophrasti, 504 h, 80 g/ha, scored visually after 3 weeks vs untreated controls (100% = plants have died, 0% = like control plants)): 100%
- pest or weed control at 20 g/ha (ABUTH [16]; Abutilon theophrasti, 504 h, dosage 20 g/ha, scored visually after 3 weeks vs untreated controls, 100% = plants have died, 0% = like control plants, read-out: Pre-emergence action against ABUTH (herbicidal activity in percent)): 90%
- pest or weed control at 80 g/ha (VIOTR; Viola tricolor, 504 h, dosage 80 g/ha): 100%

Structure (SMILES): CCn1nnnc1NC(=O)c1ccc(C(F)F)c(C(=O)NCC(F)F)c1C [Example 2-49]
- Pre-emergence action against AMARE in % (AMARE [1]; [20]): 100%
- Pre-emergence action against AMARE in % (AMARE [1]; [21]): 100%
- Post-emergence action against PHBPU in % (PHBPU [2]; dosage 5 g/ha): 80%
- Post-emergence action against PHBPU in % (PHBPU [2]; dosage 20 g/ha): 90%
- Post-emergence action at 20 g/ha against AMARE in % (AMARE [3]): 100%
- Pre-emergence action against ALOMY (herbicidal activity) (ALOMY [4]): 90%
- Post-emergence action against DIGSA in % (DIGSA [5]; 5 g/ha): 90%
- Post-emergence action against DIGSA (DIGSA [5]; 20 g/ha): 90%
- Post-emergence action against SETVI in % (SETVI [6]; dosage 20 g/ha): 90%
- Pre-emergence action against VERPE in % (VERPE [7]): 100%
- Pre-emergence action against POLCO in % (POLCO; dosage 80 g/ha): 90%
- Pre-emergence action against PHBPU in % (PHBPU [8]): 80%
- Pre-emergence action against AVEFA in % (AVEFA): 80%
- Pre-emergence action against MATIN in % (MATIN [9]; dosage 20 g/ha): 100%
- Pre-emergence action against MATIN in % (MATIN [9]; dosage 80 g/ha): 100%
- Post-emergence action against ECHCG in % (ECHCG [10]; dosage 20 g/ha): 90%
- Pre-emergence action against ECHCG in % (ECHCG [11]): 90%
- Pre-emergence action against SETVI in % (SETVI [12]): 100%
- Post-emergence action against ALOMY in % (ALOMY [13]): 80%
- Post-emergence action against MATIN in % (MATIN [14]; dosage 5 g/ha): 80%
- Post-emergence action against MATIN in % (MATIN [14]; dosage 20 g/ha): 80%
- Post-emergence action against ABUTH in % (ABUTH [17]; dosage 5 g/ha): 90%
- Post-emergence action against ABUTH in % (ABUTH [17]; dosage 20 g/ha): 90%
- Pre-emergence action against DIGSA in % (DIGSA [15]; dosage 20 g/ha): 100%
- Pre-emergence action against DIGSA in % (DIGSA [15]; dosage 80 g/ha): 100%
- Pre-emergence action against ABUTH (herbicidal activity) (ABUTH [16]; [21]): 100%
- Pre-emergence action against ABUTH (herbicidal activity in percent) (ABUTH [16]; dosage 20 g/ha, scored visually after 3 weeks vs untreated controls, 100% = plants have died, 0% = like control plants): 100%
- Pre-emergence action against VIOTR in % (VIOTR; dosage 20 g/ha): 90%
- Pre-emergence action against VIOTR in % (VIOTR; dosage 80 g/ha): 100%

Structure (SMILES): CCn1nnnc1NC(=O)c1ccc(C(F)(F)F)c(C(=O)NC2CCC2)c1Cl [Example 2-146]
- Pre-emergence action against AMARE in % (AMARE [1]; [20]): 100%
- Pre-emergence action against AMARE in % (AMARE [1]; [21]): 100%
- Post-emergence action against PHBPU in % (PHBPU [2]; dosage 5 g/ha): 80%
- Post-emergence action against PHBPU in % (PHBPU [2]; dosage 20 g/ha): 90%
- Post-emergence action at 20 g/ha against AMARE in % (AMARE [3]): 80%
- Pre-emergence action against ALOMY (herbicidal activity) (ALOMY [4]): 80%
- Pre-emergence action against VERPE in % (VERPE [7]): 80%
- Post-emergence action against VERPE in % (VERPE [18]): 80%
- Pre-emergence action against POLCO in % (POLCO; dosage 20 g/ha): 80%
- Pre-emergence action against POLCO in % (POLCO; dosage 80 g/ha): 80%
- Pre-emergence action against PHBPU in % (PHBPU [8]): 90%
- Pre-emergence action against MATIN in % (MATIN [9]; dosage 20 g/ha): 100%
- Pre-emergence action against MATIN in % (MATIN [9]; dosage 80 g/ha): 100%
- Pre-emergence action against SETVI in % (SETVI [12]): 100%
- Post-emergence action against MATIN in % (MATIN [14]; dosage 5 g/ha): 80%
- Post-emergence action against MATIN in % (MATIN [14]; dosage 20 g/ha): 90%
- Post-emergence action against ABUTH in % (ABUTH [17]; dosage 20 g/ha): 80%
- Pre-emergence action against DIGSA in % (DIGSA [15]; dosage 80 g/ha): 100%
- Pre-emergence action against ABUTH (herbicidal activity) (ABUTH [16]; [21]): 90%
- Pre-emergence action against VIOTR in % (VIOTR; dosage 20 g/ha): 100%
- Pre-emergence action against VIOTR in % (VIOTR; dosage 80 g/ha): 100%
